According to patent US10329542B2, “HBV RNAse H purification and enzyme inhibitors” (Saint Louis University, priority 2012, dated 2019):
Entries after “also recorded” stand apart in the source; their conditions may differ. Where two headings read alike, the source gives them in different places.

Tests used:
[1] = target: T1, HBV genotype D RNAseH (HRHPL) (Hepatitis B virus genotype D subtype ayw, UniProt P03156, INS679M); experiment: Oligonucleotide-directed RNAseH cleavage assay, HBV genotype D; assay type: biochemical; conditions: for Inhibition of HBV genotype D RNAseH / Residual activity at 10 uM, Genotype D: 10 μM; for Activity vs. HBV Biochemical vs. gtD: class by concentration giving inhibition (10, 20, 60 μM); for remaining activity at 10 µM: read-out: Residual activity at 10 uM, Genotype D; for Residual activity at 10 uM, Genotype D: ± standard deviation, 3 to 7 replicates; for IC50: read-out: IC50 against HBV genotype D RNAseH
T1 construct: HRHPL contains HBV genotype D (Genbank V01460) polymerase residues 684-845; made in house; host or cells: E. coli BL21 codon+

human RNAseH1 = target: T2, human RNAseH1 (Homo sapiens, UniProt O60930); experiment: Oligonucleotide-directed RNAseH assay, recombinant human RNAseH1; assay type: biochemical; conditions: for Inhibition of human RNAseH1: 10 μM, compared directly with HRHPL; for Activity vs. human RNAseH1: class by concentration giving inhibition (10, 20, 60 μM)
T2 construct: hexahistidine (N); made in house; host or cells: E. coli BL21 codon+
T2 sequence (O60930 1-286): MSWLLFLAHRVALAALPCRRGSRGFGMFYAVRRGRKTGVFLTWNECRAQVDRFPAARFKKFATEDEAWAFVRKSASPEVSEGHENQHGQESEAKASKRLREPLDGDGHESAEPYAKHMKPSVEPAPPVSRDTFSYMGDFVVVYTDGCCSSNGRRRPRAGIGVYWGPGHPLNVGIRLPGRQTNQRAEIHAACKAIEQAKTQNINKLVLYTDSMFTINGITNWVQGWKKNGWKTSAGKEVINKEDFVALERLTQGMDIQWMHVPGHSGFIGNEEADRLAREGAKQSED
How it was run: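 His-tagged human RNAseH1, expressed in E. coli and titrated to an activity matching the HBV enzyme, was incubated with internally 32P-labelled RNA plus a complementary DNA oligonucleotide. Reactions ran for 90 min at 42 °C in 65 mM Tris pH 8.0, 190 mM NaCl and 5 mM MgCl2, with 1% DMSO. Cleavage was measured by SDS-PAGE autoradiography.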

HBV genotype C RNAseH = experiment: Oligonucleotide-directed RNAseH cleavage assay, HBV genotype C; assay type: biochemical, Hepatitis B virus; conditions: class by concentration giving inhibition (10, 20, 60 μM)
Experimental: For the oligonucleotide-directed RNAseH cleavage assay (Gong et al., 2001), 6 μl protein extract (typical protein concentration 2.8 mg/ml) was mixed with 0.5 μg internally ^32P-labeled DRF+ RNA (nucleotides 2401-2605 of the duck HBV genome plus 60 nucleotides of flanking sequences from pBluescript) and 3 μg oligonucleotide D2507- or its corresponding negative control D2526+ on ice in 20 μl under the conditions in Table 1. Some reactions in FIG. 5 employed oligonucleotide D2543M-Sal or its D2453+ negative control as indicated. The reactions were incubated at 42° C. for 90 min. and terminated by addition of Laemmli protein loading buffer and boiling. The samples were resolved by 12% SDS-PAGE, the gels were stained with Coomassie blue to monitor protein loading, and labeled RNA was detected by autoradiography. Candidate inhibitors were dissolved in DMSO and added at the indicated concentrations during assembly of the reactions. Control reactions lacking the compounds contained DMSO as a vehicle control. The RNAseH autoradiograms were scanned and quantified with ImageJ. The oligonucleotides were: D2526+([…]; SEQ ID NO:8), D2507-([…]; SEQ ID NO:9), D2453+([…]; SEQ ID NO:10), and D2543M-Sal ([…]; SEQ ID NO:11).
Incremental improvements were developed in extraction of the HBV RNAseH from the bacterial cell pellets since the data were generated for Examples 1 and 2. Key among these was shifting from using a cup sonicator to a probe sonicator and reducing the duration of the sonication period from 3×60 second bursts to 3×20 second bursts. When the […] genotype C clone that had inconsistent activity under the old extraction conditions (FIG. 6C) was isolated under these conditions, it became consistently and robustly active (FIG. 16).

HBV genotype H RNAseH = experiment: Oligonucleotide-directed RNAseH cleavage assay, HBV genotype H; assay type: biochemical, Hepatitis B virus; conditions: for Residual activity at 10 uM, Genotype H: ± standard deviation, 3 to 7 replicates; for Residual activity at 10 uM, Genotype H / Inhibition of HBV genotype H RNAseH: 10 μM; for Inhibition of HBV genotype H RNAseH: below threshold of irrelevant controls
How it was run: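 HBV RNAseH protein extracts mixed with internally ^32P-labeled RNA plus excess complementary DNA oligonucleotide (inverse-complement as negative control) in 65 mM Tris pH 8.0, 190 mM NaCl, 5 mM MgCl2, 1% DMSO; 90 min at 42° C. Cleavage products resolved by SDS-PAGE, quantified by autoradiography; IC50 by non-linear regression.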

T1 sequence (P03156 680-832, added parts left off, stated change not applied): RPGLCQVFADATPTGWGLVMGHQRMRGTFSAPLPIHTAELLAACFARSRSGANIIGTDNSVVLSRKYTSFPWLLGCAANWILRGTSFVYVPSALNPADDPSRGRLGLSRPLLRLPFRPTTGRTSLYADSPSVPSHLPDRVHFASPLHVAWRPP

Row | SMILES | Activity vs. HBV Biochemical vs. gtD [1] | Inhibition of human RNAseH1 (human RNAseH1) | Activity vs. human RNAseH1 (human RNAseH1) | Activity vs. HBV Biochemical vs. gtC (HBV genotype C RNAseH) | Residual activity at 10 uM, Genotype H (HBV genotype H RNAseH) [Percent DMSO control] | Residual activity at 10 uM, Genotype D [1] [Percent DMSO control] | Inhibition of HBV genotype H RNAseH (HBV genotype H RNAseH) | other results
1 | Cc1nnc(C(=O)NC(C)(C)c2nc(C(=O)NCc3ccc(F)cc3)c(O)c(=O)n2C)o1 [Compound 11, Raltegravir, reference compound] | ++ (++ inhibition at 20 μM) | had no effect on RNAseH1 | − (− no inhibition at 60 μM) | ++ (++ inhibition at 20 μM) | 63 ± 21 |  |  | Inhibition of HBV genotype D RNAseH [1]: inhibited the HBV RNAseH; remaining activity at 10 µM [1]: 29 ± 18%
2 | Cc1c2cc(O)c(=O)cc-2oc2cc(O)c(O)cc12 [Compound 8] | ++ (++ inhibition at 20 μM) | inhibited RNAseH1 well | +++ (+++ inhibition at 10 μM) |  | 74 ± 21 | 33 ± 17 |  | Inhibition ([1]; below 5 μM): ineffective; Inhibition ([1]; between 10 and 30 μM): 40-85%
3 | NCc1ccc(-c2ccc(Cc3cc(=O)n(O)c4ncccc34)cc2)cc1 [Compound 12, napthyridinone] | +++ (+++ inhibition at 10 μM) | inhibited it weakly |  | +++ (+++ inhibition at 10 μM) | 17 ± 6 | 28 ± 12 | inhibited | IC50 [1]: 2.5 µM
4 | COc1cc2c(cc1Cc1cccc(Cl)c1F)c(=O)c(C(=O)O)cn2[C@H](CO)C(C)C [Compound 10, Elvitegravir, reference compound] | ++ (++ inhibition at 20 μM) | had no effect on RNAseH1 | − (− no inhibition at 60 μM) | ++ (++ inhibition at 20 μM) | 66 ± 21 |  |  | Inhibition of HBV genotype D RNAseH [1]: inhibited the HBV RNAseH; remaining activity at 10 µM [1]: 30 ± 8%
5 | CCOc1ccc(-c2c3cc(O)c(=O)cc-3oc3cc(O)c(O)cc23)cc1 [Compound 30] | +++ (+++ inhibition at 10 μM) |  | +++ (+++ inhibition at 10 μM) | ++ (++ inhibition at 20 μM) | 37 ± 8 | 23 ± 6 |  | 
6 | Cc1cc(=O)oc2cc(O)c(O)cc12 [Compound 34] | ++ (++ inhibition at 20 μM) |  | + (+ inhibition at 60 μM) | +++ (+++ inhibition at 10 μM) | 33 ± 12 | 30 ± 15 | inhibited | 
7 | COc1ccc2ccccc2c1C=NNC(=O)c1cc(O)c(O)c(O)c1 [Compound 14] | − (− no inhibition at 60 μM) |  |  |  | 27 ± 13 | 46 ± 20 | inhibited | 
8 | CC(C)c1ccc(O)c(=O)c(O)c1 [Compound 46, beta-thujaplicinol] | +++ (+++ inhibition at 10 μM) |  | − (− no inhibition at 60 μM) | +++ (+++ inhibition at 10 μM) |  |  |  | Difference between IC50 against HIV-1 RNAseH and HBV RNAseH [1]: ~10 fold; IC50 ([1]; listed as β-thujaplicinol): 6 µM; IC50 ([1]; listed as βTJ): 5.9 ± 0.7 µM; Effect on human RNAseH1 (human RNAseH1; 0, 5, or 20 μM): had little effect on the human RNAseH1; Effect on human RNAseH1 activity (human RNAseH1; 0.02 to 100 μM, listed as βTJ): had no effect on RNAseH1 activity; also recorded: failed to inhibit recombinant human RNAseH1; IC50 (HBV genotype H RNAseH; read-out: IC50 against HBV genotype H RNAseH): 2.3 ± 1.7 µM
9 | [N-]=[N+]=NCc1cccc(C(=O)CC(=O)C(=O)O)c1 [Compound 40] | +++ (+++ inhibition at 10 μM) |  |  |  | 22 ± 2 | 21 ± 16 | inhibited | 
